Where two headings read alike, the source gives them in different places.
Experiments:
[1] = test system: lipid peroxidation (LPO) of rat brain homogenate; experiment: Lipid peroxidation (LPO) of rat brain homogenate, TBARS test; format: biochemical; conditions: substances at 100 μM, mean ± SEM; for % of Activity, Inhibition of LPO, Fe (II): Fe (II)-induced; for % of Activity, Inhibition of LPO, t-BHP: t-BHP-induced
Procedure: To obtain the brain homogenate, rats preliminarily anesthetized with CO2 were decapitated with a guillotine. The brain was homogenized in a buffer containing KCl (120 mM) and HEPES (20 mM), pH = 7.4 at 4 °C, and centrifuged at 1500 rpm to obtain a supernatant. The protein was quantified according to the standard microbiuret method.
To investigate the effect of the compounds on lipid peroxidation (LPO) of rat brain homogenate, we used the modified version of the TBARS test, which is based on the reaction of 2-thiobarbituric acid with the end LPO product—malonic dialdehyde (MDA). The plate well, according to the experimental scheme, contained the compounds under study (100 μM), rat brain homogenate (2 mg/mL), as well as ferrous iron ions ([…]) at a concentration of 500 μM and 1.6 mM tert-butyl hydroxyperoxide as an initiator. After 30 min of incubation at 37 °C, TBARS reagent was added to all samples, incubated for 90 min at 90 °C, and centrifuged at 6000 rpm for 15 min. The optical density of the selected supernatant was measured on a Victor 3 plate reader (Perkin Elmer) at λ = 540 nm.
A rat brain homogenate preparation containing fragments of cell membranes was used as a model system to investigate the antioxidant activity of the hydroxamic acids. To initiate the process of lipid peroxidation, ferrous ions were used to trigger the Fenton reaction, during which the iron valence changes and a highly reactive hydroxyl radical is formed, and tert-butyl hydroxyperoxide as a direct source of free radicals.

[2] = DPPH test of antiradical activity; conditions: substances at 100 μM, mean ± SEM
Procedure: The DPPH test was used to examine antiradical activity based on the ability of a stable chromogen radical of 2,2-diphenyl-1-picrylhydrazyl (DPPH) to remove a hydrogen atom, which is accompanied by a change in the absorption maximum in the electronic absorption spectra. The amount of reduced DPPH was measured using a Cytation ™ 3 multifunctional plate analyzer (BioTek Instruments, Inc., Winooski, VT, USA) at a wavelength of 517 nm.
The antiradical activity of the test compounds was evaluated by the DPPH test, based on the ability of antioxidants to donate an electron to the stable chromogen radical DPPH, converting it into a nonradical form and neutralizing its activity. […] The chromogenic free radical DPPH used in this test has a large size, and substances even with a similar chemical structure may have different antiradical properties due to spatially difficult access.

SH-SY5Y cells = experiment: MTT cell viability, SH-SY5Y; format: cell-based; conditions: Homo sapiens, MTT test
Procedure: (§1) The effect of the hydroxamic acids on the viability of cells obtained from human embryonic kidneys, HEK 293, as well as the native form of human neuroblastoma, SH-SY5Y, was evaluated in the MTT test. Using a multifunctional flatbed analyzer, Cytation™3 (BioTek Instruments, Inc., Winooski, VT, USA), the optical density was determined at a wavelength of 530 nm. Based on the dose-dependent curves, the concentration values leading to 50% inhibition of cell population growth (IC50) were calculated.
(§2) Due to the fact that most compounds of the class of hydroxamic acids have high cytotoxic activity and are mainly used as anticancer drugs, their use as neuroprotective drugs is limited. Since the goal of our work was to search for agents for the pharmacological correction of neurodegenerative diseases, a necessary part of the biological activity study of the synthesized hydroxamic acids was to determine their effect on the survival of cell cultures. In our work, we used neuron-like neuroblastoma cells SH-SY5Y and a healthy cell line isolated from the human embryonic kidney, HEK 293.

HEK 293 cells = experiment: MTT cell viability, HEK 293; format: cell-based; conditions: Homo sapiens, HEK293; HEK-293, MTT test
Procedure: as §1, §2

HDAC6 = molecular target: T1, HDAC6 (Homo sapiens, UniProt Q9UBN7); experiment: HDAC6 enzyme activity, FLUOR DE LYS fluorometric kit; format: biochemical
T1 construct: purchased Enzo Life Sciences (Enzo Biochem, New York, NY, USA)
T1 sequence (Q9UBN7 1-1215): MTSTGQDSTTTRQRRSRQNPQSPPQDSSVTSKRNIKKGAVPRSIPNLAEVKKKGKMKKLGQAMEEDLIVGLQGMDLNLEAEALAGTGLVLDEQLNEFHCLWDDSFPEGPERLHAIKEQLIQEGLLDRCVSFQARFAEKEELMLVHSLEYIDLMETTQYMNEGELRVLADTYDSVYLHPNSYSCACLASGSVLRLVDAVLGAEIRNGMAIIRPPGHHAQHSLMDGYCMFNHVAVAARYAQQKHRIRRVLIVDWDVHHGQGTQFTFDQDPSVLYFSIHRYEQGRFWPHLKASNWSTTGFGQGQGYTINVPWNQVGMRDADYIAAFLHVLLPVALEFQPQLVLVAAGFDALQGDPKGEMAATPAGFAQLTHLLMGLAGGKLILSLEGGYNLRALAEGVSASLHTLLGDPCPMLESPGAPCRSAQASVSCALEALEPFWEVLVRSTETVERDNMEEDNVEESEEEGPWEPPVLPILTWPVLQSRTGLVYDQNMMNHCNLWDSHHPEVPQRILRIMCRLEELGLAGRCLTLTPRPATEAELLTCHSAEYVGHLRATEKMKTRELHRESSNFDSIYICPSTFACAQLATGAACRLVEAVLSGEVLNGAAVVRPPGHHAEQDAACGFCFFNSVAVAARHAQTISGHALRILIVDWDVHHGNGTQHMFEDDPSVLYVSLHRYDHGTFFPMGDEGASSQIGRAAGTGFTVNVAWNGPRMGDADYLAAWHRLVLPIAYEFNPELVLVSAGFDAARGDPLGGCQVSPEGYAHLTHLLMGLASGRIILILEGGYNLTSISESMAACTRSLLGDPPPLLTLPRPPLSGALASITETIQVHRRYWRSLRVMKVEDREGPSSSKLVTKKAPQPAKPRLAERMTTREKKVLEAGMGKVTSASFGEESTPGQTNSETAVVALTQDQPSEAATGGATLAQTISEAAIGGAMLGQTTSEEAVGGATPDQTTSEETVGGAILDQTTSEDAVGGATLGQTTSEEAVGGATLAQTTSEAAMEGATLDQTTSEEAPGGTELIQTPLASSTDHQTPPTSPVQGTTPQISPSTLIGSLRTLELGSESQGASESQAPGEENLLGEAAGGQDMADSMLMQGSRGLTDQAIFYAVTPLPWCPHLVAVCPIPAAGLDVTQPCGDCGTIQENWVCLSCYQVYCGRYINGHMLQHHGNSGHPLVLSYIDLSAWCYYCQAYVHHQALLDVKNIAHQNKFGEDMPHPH

β-amyloid 1–40 = β-amyloid 1–40 aggregation, Thioflavin T fluorescence; format: biochemical; conditions: 100 μM, 72 h incubation
Procedure: (§3) The effect of the studied compounds on the aggregation of β-amyloid (1–40/1–42) was analyzed using the method of recording Thioflavin T fluorescence (10 µM) for 72 h at 37 °C. The fluorescence signal was measured using a multifunctional flatbed analyzer, the Cytation ™ 3 (BioTek Instruments, Inc., Winooski, VT, USA), at λex = 450 nm, λem = 480 nm.
(§4) The effect of hydroxamic acids on the stage of aggregation of the pathological β-amyloid peptide was investigated for 72 h using two model systems—fragments Aβ1–40 and Aβ1–42. The fluorophore Thioflavin T was used as an indicator of the ongoing fibrillation process, the interaction of which with proteins in the state of amyloid fibrils leads to an increase in the fluorescence signal.

β-amyloid 1–42 = test system: T2, β-amyloid 1–42; experiment: β-amyloid 1–42 aggregation, Thioflavin T fluorescence; format: biochemical; conditions: 100 μM, 72 h incubation
T2 construct: fragments Aβ1–40 and Aβ1–42
Procedure: as §3, §4

[3] = mean ± SEM, read-out: IC50 HDAC6 Inhibitory Activity

IC50 (SH-SY5Y cells) [µM] | melting point [°C] | IC50 (HDAC6; [3]) [µM] | IC50 (HDAC6; Table S2, used for correlation with pKi, read-out: pIC50 (from experimental HDAC6 IC50) (converted)) [µM] | Structure (SMILES) | % of Activity, Inhibition of LPO, Fe (II) [1] | % of Activity, Inhibition of LPO, t-BHP [1] | % of Activity, Antiradical Activity [2] | IC50 (HEK 293 cells) [µM] | Effect on β-amyloid 1–40 aggregation (β-amyloid 1–40) | Effect on β-amyloid 1–42 aggregation (β-amyloid 1–42)
 |  |  |  | CC(/C=C/C(=O)NO)=C\[C@@H](C)C(=O)c1ccc(N(C)C)cc1 [Trich. A, Trichostatin A, reference compound] | - (The ‘-’ mark indicates the lack of activity of the test substances (≤10%) in a particular test) | - (The ‘-’ mark indicates the lack of activity of the test substances (≤10%) in a particular test) | - (The ‘-’ mark indicates the lack of activity of the test substances (≤10%) in a particular test) |  |  | 
 |  |  |  | Cc1c(C)c2c(c(C)c1O)CCC(C)(C(=O)O)O2 (stereo not drawn) [Trolox, reference compound] | 97.21 ± 4.09% | 99.11 ± 3.72% |  |  |  | 
> 100 | 149 to 149.3 |  |  | O=C(NO)C12CC3CC(CC(C3)C1)C2 [compound 1, N-Hydroxyadamantane-1-Carboxamide] | - (The ‘-’ mark indicates the lack of activity of the test substances (≤10%) in a particular test) | - (The ‘-’ mark indicates the lack of activity of the test substances (≤10%) in a particular test) | - (The ‘-’ mark indicates the lack of activity of the test substances (≤10%) in a particular test) | > 100 |  | 
> 100 | 173.4 |  |  | O=C(NO)C1C2CC3CC(C2)CC1C3 (stereo not drawn) [compound 2, N-Hydroxyadamantane-2-Carboxamide] | - (The ‘-’ mark indicates the lack of activity of the test substances (≤10%) in a particular test) | - (The ‘-’ mark indicates the lack of activity of the test substances (≤10%) in a particular test) | 32.02 ± 3.33% | > 100 |  | 
51.9 ± 3.56 | 94.8 | 0.69 ± 0.02 |  | CC1(C)[C@@H]2CC[C@@]1(C)[C@H](NC(=O)CCCCCCC(=O)NO)C2 [compound 11, N^1-Hydroxy-N^8-((1R,2R,4R)-1,7,7-Trimethylbicyclo [2.2.1]heptan-2-yl)octanediamide] | 28.39 ±7.41% | 35.96 ± 1.99% | 22.22 ± 1.40% | > 100 |  | 
> 100 | 50.4 | 4.06 ± 0.48 |  | CC1(C)[C@@H]2CC[C@@]1(C)[C@H](NC(=O)CCCCCCCC(=O)NO)C2 [compound 12, N^1-Hydroxy-N^9-((1R,2R,4R)-1,7,7-Trimethylbicyclo [2.2.1]heptan-2-yl)nonanediamide] | 44.02 ± 1.57% | 30.36 ± 1.98% | - (The ‘-’ mark indicates the lack of activity of the test substances (≤10%) in a particular test) | > 100 |  | 
> 100 | 45.1 | 9.44 ± 0.74 |  | CC1(C)[C@H]2CC[C@](C)(C2)[C@H]1NC(=O)CCCCCCC(=O)NO [compound 13, N^1-Hydroxy-N^8-((1R,2R,4S)-1,3,3-Trimethylbicyclo[2.2.1]heptan-2-yl)octanediamide] | 28.90 ± 3.38% | 24.02 ± 3.44% | - (The ‘-’ mark indicates the lack of activity of the test substances (≤10%) in a particular test) | > 100 |  | 
> 100 | 44.9 | 4.48 ± 0.13 |  | CC1(C)[C@H]2CC[C@](C)(C2)[C@H]1NC(=O)CCCCCCCC(=O)NO [compound 14, N^1-Hydroxy-N^9-((1R,2R,4S)-1,3,3-Trimethylbicyclo[2.2.1]heptan-2-yl)nonanediamide] | 37.91 ± 1.08% | 22.62 ± 4.31% | - (The ‘-’ mark indicates the lack of activity of the test substances (≤10%) in a particular test) | > 100 |  | 
52 ± 2.61 |  | ≤ 6.5 | 15.3 | CC1(C)C(NC(=O)/C=C/c2ccc(C(=O)NO)cc2)[C@@]2(C)CC[C@H]1C2 (stereo partly drawn) [compound 24, N-Hydroxy-4-((E)-3-Oxo-3-(((1S,4S)-1,3,3-Trimethylbicyclo[2.2.1]heptan-2-yl)amino)prop-1-en-1-yl)benzamide] | 34.16 ± 1.37% | 20.63 ± 3.92% | 20.32 ± 0.41% | 60.2 ± 1 | noticeable fibrillation inhibition | noticeable fibrillation inhibition

— paper PMC8623418, “Novel Multitarget Hydroxamic Acids with a Natural Origin CAP Group against Alzheimer’s Disease: Synthesis, Docking and Biological Evaluation” (Pharmaceutics, 2021)
